How the values were obtained:
Assay in all cases: relative viability (nuclei count vs DMSO), 5 days (fraction); higher = more cells survive
Zebularine + AZD7762 = compound: O=c1ncccn1[C@@H]1O[C@H](CO)[C@@H](O)[C@H]1O [Zebularine] + NC(=O)Nc1cc(-c2cccc(F)c2)sc1C(=O)N[C@H]1CCCNC1 [AZD7762] (partner 0.2 µM)
Summary of the method: (§1)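 Lung cancer cell lines were seeded in 1536-well plates and dosed by pin tool the next day, with either a single drug or a fixed anchor-drug dose combined with five library-drug doses (not always all listed) spaced in √10 steps. Five days later, one step fixed the cells and stained their nuclei (final 0.05% Triton X-100, 1% formaldehyde, 1 ug/ml Hoechst), and nuclei were counted on 4× images. Relative viability is the nuclei count in treated wells divided by the count in vehicle wells, and each value is the median of duplicate plates.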

Zebularine + Pictilisib = compound: O=c1ncccn1[C@@H]1O[C@H](CO)[C@@H](O)[C@H]1O [Zebularine] + CS(=O)(=O)N1CCN(Cc2cc3nc(-c4cccc5[nH]ncc45)nc(N4CCOCC4)c3s2)CC1 [Pictilisib] (partner 1 µM)
Summary of the method: as §1

BI-D1870 + Olaparib = compound: CC(C)CCN1c2nc(Nc3cc(F)c(O)c(F)c3)ncc2N(C)C(=O)C1C [BI-D1870] + O=C(c1cc(Cc2n[nH]c(=O)c3ccccc23)ccc1F)N1CCN(C(=O)C2CC2)CC1 [Olaparib] (partner 8 µM)
Summary of the method: as §1

BI-D1870 + Luminespib = compound: CC(C)CCN1c2nc(Nc3cc(F)c(O)c(F)c3)ncc2N(C)C(=O)C1C [BI-D1870] + CCNC(=O)c1noc(-c2cc(C(C)C)c(O)cc2O)c1-c1ccc(CN2CCOCC2)cc1 [Luminespib] (partner 0.01 µM)
Summary of the method: as §1

Cell Line | relative viability (Zebularine + AZD7762; first compound 1 µM) | relative viability (Zebularine + AZD7762; first compound 3.162 µM) | relative viability (Zebularine + AZD7762; first compound 10 µM) | relative viability (Zebularine + AZD7762; first compound 31.62 µM) | relative viability (Zebularine + AZD7762; first compound 100 µM) | relative viability (Zebularine + Pictilisib; first compound 1 µM) | relative viability (Zebularine + Pictilisib; first compound 3.162 µM) | relative viability (Zebularine + Pictilisib; first compound 10 µM) | relative viability (Zebularine + Pictilisib; first compound 31.62 µM) | relative viability (Zebularine + Pictilisib; first compound 100 µM) | relative viability (BI-D1870 + Olaparib; first compound 0.04 µM) | relative viability (BI-D1870 + Olaparib; first compound 0.1265 µM) | relative viability (BI-D1870 + Olaparib; first compound 0.4 µM) | relative viability (BI-D1870 + Olaparib; first compound 1.265 µM) | relative viability (BI-D1870 + Olaparib; first compound 4 µM) | relative viability (BI-D1870 + Luminespib; first compound 0.04 µM) | relative viability (BI-D1870 + Luminespib; first compound 0.1265 µM) | relative viability (BI-D1870 + Luminespib; first compound 0.4 µM) | relative viability (BI-D1870 + Luminespib; first compound 1.265 µM) | relative viability (BI-D1870 + Luminespib; first compound 4 µM)
LK-2 | 0.492 | 0.382 | 0.49 | 0.23 | 0.16 | 0.617 | 0.747 | 0.266 | 0.383 | 0.36 | 0.913 | 0.655 | 0.683 | 0.834 | 0.71 | 0.204 | 0.19 | 0.185 | 0.169 | 0.212
BEN | 0.808 | 0.587 | 0.504 | 0.496 | 0.296 | 0.56 | 0.504 | 0.291 | 0.385 | 0.3 | 1.23 | 1 | 1.02 | 1.11 | 0.806 | 0.409 | 0.358 | 0.441 | 0.356 | 0.35
NCI-H23 | 0.3 | 0.375 | – | 0.23 | 0.254 | 0.536 | 0.444 | – | 0.499 | 0.436 | 0.307 | 0.263 | 0.294 | 0.301 | 0.212 | 0.237 | 0.222 | 0.232 | 0.217 | 0.24
NCI-H1395 | 0.402 | 0.372 | 0.397 | 0.37 | 0.435 | 0.681 | 0.568 | 0.493 | 0.606 | 0.42 | 0.448 | 0.436 | 0.429 | 0.489 | 0.406 | 0.623 | 0.532 | 0.675 | 0.504 | 0.521
201T | 0.674 | 0.594 | 0.426 | 0.691 | 0.607 | 0.729 | 0.743 | 0.709 | 0.671 | 0.703 | 0.901 | 0.806 | 0.809 | 0.851 | 0.856 | 1.1 | 1.01 | 1.06 | 1.07 | 1.12
NCI-H2170 | 0.914 | 0.982 | 0.771 | 0.938 | 0.393 | 0.385 | 0.31 | 0.348 | 0.322 | 0.243 | 0.707 | 0.605 | 0.575 | 0.587 | 0.448 | 0.817 | 0.723 | 0.751 | 0.65 | 0.67
NCI-H460 | 0.781 | 0.716 | 0.294 | 0.434 | 0.126 | 0.424 | 0.316 | 0.212 | 0.243 | 0.166 | 0.492 | 0.384 | 0.323 | 0.436 | 0.179 | 0.0324 | 0.0316 | 0.0261 | 0.0295 | 0.0315
HCC-15 | 1.24 | 1.41 | 0.883 | 1.17 | 0.984 | 0.826 | 0.424 | 0.536 | 0.666 | 0.249 | 0.819 | 0.761 | 0.713 | 0.694 | 0.404 | 0.314 | 0.205 | 0.332 | 0.34 | 0.344
ABC-1 | 0.816 | – | 0.554 | 0.538 | 0.54 | 0.62 | 0.326 | 0.633 | 0.564 | 0.439 | 0.751 | 0.782 | 1 | 0.613 | 0.666 | 0.581 | 0.776 | – | 0.512 | 0.371
LCLC-103H | 0.8 | 0.798 | 0.579 | 0.802 | 0.689 | 0.564 | 0.603 | 0.513 | 0.612 | 0.553 | 0.813 | 0.68 | 0.676 | 0.764 | 0.671 | 0.989 | 0.753 | 0.888 | 1.07 | 0.934
NCI-H441 | 1.37 | 1.27 | 0.536 | 0.418 | 0.369 | 0.472 | 0.438 | 0.291 | 0.199 | 0.188 | 0.682 | 0.549 | 0.569 | 0.537 | 0.492 | 0.474 | 0.267 | 0.359 | 0.394 | 0.412
EPLC-272H | 0.171 | – | 0.183 | 0.192 | 0.24 | 0.342 | – | – | 0.297 | 0.273 | 0.692 | 0.804 | 0.692 | 0.381 | 0.204 | 0.559 | 0.13 | 0.207 | 0.245 | 0.272

— the supplement of paper PMC10307832
